Test results taken from article PMC2288882 (The Journal of Cell Biology, 1991).

Assays:
Format in all cases: binding
[1] = biological target: native Torpedo AChR (all four subunits) (Tetronarce californica, UniProt P02710+P02714+P02718); settings: extracts of oocytes expressing all four AChR subunits; Fig. 1 A
[2] = biological target: Torpedo AChR αγ subunit combination (Tetronarce californica, UniProt P02710+P02714); test: biochemical
[3] = biological target: Torpedo AChR αδ subunit combination (Tetronarce californica, UniProt P02710+P02718); test: biochemical
Sequence of Torpedo AChR αδ subunit combination (P02718 22-522): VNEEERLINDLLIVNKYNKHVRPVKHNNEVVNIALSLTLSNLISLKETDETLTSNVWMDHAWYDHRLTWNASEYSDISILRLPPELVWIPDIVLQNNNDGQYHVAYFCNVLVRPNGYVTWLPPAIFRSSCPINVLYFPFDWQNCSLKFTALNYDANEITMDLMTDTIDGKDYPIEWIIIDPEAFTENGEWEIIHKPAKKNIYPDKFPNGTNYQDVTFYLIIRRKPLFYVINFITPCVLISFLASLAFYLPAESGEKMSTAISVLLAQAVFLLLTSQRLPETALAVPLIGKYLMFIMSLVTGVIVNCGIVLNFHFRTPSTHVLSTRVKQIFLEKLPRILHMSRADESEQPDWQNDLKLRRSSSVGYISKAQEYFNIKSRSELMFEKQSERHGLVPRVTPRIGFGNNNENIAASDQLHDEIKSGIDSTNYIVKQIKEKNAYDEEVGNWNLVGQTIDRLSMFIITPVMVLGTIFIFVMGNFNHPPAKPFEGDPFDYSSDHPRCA
Sequence of Torpedo AChR αδ subunit combination (P02710 25-461): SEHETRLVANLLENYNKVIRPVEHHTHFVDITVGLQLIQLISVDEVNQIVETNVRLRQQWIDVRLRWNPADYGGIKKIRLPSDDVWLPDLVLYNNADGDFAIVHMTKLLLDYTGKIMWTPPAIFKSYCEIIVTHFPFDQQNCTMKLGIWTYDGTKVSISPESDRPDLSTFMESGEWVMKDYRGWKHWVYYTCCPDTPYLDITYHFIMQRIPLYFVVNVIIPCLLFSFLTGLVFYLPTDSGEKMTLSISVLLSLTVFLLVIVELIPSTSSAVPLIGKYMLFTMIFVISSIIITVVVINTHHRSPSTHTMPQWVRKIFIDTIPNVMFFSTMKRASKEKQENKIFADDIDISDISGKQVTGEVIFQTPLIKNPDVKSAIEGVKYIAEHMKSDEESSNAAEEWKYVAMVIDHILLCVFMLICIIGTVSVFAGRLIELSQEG

Sequence of native Torpedo AChR (all four subunits) (P02710 25-461): as above
Sequence of native Torpedo AChR (all four subunits) (P02712 25-493, further chain): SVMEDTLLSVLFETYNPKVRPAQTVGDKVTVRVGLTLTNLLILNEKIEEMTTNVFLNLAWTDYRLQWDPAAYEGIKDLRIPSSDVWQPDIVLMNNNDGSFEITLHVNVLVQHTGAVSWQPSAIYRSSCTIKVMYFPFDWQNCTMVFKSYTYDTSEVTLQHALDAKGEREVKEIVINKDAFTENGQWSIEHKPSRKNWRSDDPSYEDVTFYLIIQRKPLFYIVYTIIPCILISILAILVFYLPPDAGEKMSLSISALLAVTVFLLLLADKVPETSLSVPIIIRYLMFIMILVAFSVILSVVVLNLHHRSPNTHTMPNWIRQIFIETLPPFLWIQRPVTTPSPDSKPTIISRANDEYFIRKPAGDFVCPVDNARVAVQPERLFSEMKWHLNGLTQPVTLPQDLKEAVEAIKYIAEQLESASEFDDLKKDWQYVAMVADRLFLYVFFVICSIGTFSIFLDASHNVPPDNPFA
Sequence of native Torpedo AChR (all four subunits) (P02718 22-522): as the sequence (P02718 22-522) above
Sequence of native Torpedo AChR (all four subunits) (P02714 18-506): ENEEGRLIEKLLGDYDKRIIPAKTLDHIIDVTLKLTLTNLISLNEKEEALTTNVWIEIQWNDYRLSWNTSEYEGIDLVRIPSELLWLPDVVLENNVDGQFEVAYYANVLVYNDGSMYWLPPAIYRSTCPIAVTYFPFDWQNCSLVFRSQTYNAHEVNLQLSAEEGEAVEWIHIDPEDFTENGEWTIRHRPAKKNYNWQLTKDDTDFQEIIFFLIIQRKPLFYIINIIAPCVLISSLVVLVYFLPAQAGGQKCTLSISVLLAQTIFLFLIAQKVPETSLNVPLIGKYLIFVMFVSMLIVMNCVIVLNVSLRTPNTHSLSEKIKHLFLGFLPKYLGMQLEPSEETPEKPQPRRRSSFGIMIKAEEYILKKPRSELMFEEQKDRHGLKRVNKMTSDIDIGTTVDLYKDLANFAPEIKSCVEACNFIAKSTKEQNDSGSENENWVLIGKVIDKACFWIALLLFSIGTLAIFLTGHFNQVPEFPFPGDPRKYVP
Sequence of Torpedo AChR αγ subunit combination (P02710 25-461): as the sequence (P02710 25-461) above
Sequence of Torpedo AChR αγ subunit combination (P02714 18-506): as the sequence (P02714 18-506) above

Question: With `COc1cc2c3cc1Oc1cc(ccc1O)C[C@@H]1c4c(cc(OC)c(O)c4Oc4ccc(cc4)C[C@@H]3N(C)CC2)CC[N+]1(C)C` [curare] as the compound, how does the “shape of curare inhibition curve of αBgt binding” value [1] read?
Answer: Its value is “biphasic curve”.

Question: And the IC50 [2]?
Answer: The IC50 was ~20 µM.

Question: What about the IC50 [3] of the same compound?
Answer: The IC50 was 200 µM.
